This data set can be described thus: Solubility of sensitizer in norbornadiene. The following applies: at room temperature.

For the compound `CCN(CC)c1ccc(C(=O)c2ccc(N(CC)CC)cc2)cc1` [EMK, 4,4′-bis (diethylamino) benzophenone], the solubility in norbornadiene result is on record as “at least 3.86 % by weight”.
Regarding `CN(C)c1ccc(C(=O)c2ccc(N(C)C)cc2)cc1` [MK, 4,4′-bis (dimethylamino)-benzophenone], the solubility in norbornadiene is reported as no more than 0.32 % by weight.

Source of the values: patent US20040054244A1, “Process of quadricyclane production” (Exciton, Inc., priority 2000, published 2004).
